According to ChEMBL document CHEMBL2074093, “The predominant contribution of oligopeptide transporter PepT1 to intestinal absorption of beta-lactam antibiotics in the rat small intestine” (J Pharm Pharmacol, 1997):

What follows are molecules tested against T1, Solute carrier family 15 member 1 (Rattus norvegicus) (UniProt P51574) (assay: TP_TRANSPORTER: uptake in Xenopus laevis oocytes). Settings: Oocyte; call rule not given here.
T1 sequence (whole entry): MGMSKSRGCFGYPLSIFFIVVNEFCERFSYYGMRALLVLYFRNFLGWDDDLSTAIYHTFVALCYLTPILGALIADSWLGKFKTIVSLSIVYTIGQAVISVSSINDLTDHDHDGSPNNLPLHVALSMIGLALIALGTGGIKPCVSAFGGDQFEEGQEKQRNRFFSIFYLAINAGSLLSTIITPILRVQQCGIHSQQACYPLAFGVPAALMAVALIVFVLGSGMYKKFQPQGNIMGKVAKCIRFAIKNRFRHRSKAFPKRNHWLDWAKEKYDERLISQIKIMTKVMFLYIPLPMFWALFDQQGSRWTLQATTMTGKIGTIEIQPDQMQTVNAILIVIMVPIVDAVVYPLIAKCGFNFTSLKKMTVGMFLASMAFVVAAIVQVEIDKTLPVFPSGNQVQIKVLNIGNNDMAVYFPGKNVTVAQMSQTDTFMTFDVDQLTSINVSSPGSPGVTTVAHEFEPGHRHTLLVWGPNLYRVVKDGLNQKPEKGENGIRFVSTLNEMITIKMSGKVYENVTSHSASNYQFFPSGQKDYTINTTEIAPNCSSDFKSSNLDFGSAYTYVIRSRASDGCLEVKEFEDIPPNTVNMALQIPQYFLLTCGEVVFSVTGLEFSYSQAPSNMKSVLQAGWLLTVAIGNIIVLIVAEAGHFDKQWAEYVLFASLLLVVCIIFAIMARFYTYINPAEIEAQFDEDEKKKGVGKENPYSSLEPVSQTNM
Assay type: functional, cell-based

Activity, active:
CC1=C(C(=O)O)N2C(=O)[C@@H](NC(=O)[C@H](N)c3ccc(O)cc3)[C@H]2SC1 substrate [+], C=CC1=C(C(=O)O)N2C(=O)[C@@H](NC(=O)/C(=N\OCC(=O)O)c3csc(N)n3)[C@H]2SC1 substrate [+], CC1=C(C(=O)O)N2C(=O)[C@@H](NC(=O)[C@H](N)c3ccccc3)[C@H]2SC1 substrate [+]
